Like-named read-outs stand apart in the source and are kept apart here.
Legend:
[1] = system: Plasmodium falciparum 3D7-A10 parasites; assay: Stage specificity assay (8-h exposure of synchronized stages, IC50^8h); type: cell-based; details: for IC50: Plasmodium falciparum
[2] = system: asynchronous 3D7-A10 parasite cultures; assay: Standard 72-h exposure asexual blood stage susceptibility assay (IC50^72h); type: cell-based, Plasmodium falciparum; details: Plasmodium falciparum, 3D7, 72 h, read-out: Overall (72hr assay) Mean IC50 (IC50^72h)
[3] = system: 3D7-MR4 trophozoite parasite-infected RBCs; assay: Metabolomic profiling (hydrophilic metabolite changes, UHPLC-MS); type: cell-based, Plasmodium falciparum

Ratio lowest IC50 8hr/IC50 72hr ([1]; 3D7-A10): 1.1
IC50 [2]: 63.5 nM
Compound: CNc1nc(NCCCN(C)C)c2sc(-c3cccc(C(F)(F)F)c3)cc2n1 [MMV668311]
IC50 ([1]; 3D7, read-out: Early rings Mean IC50 (IC50^8h), 8-h exposure 0–8 hr, 3D7-A10, survival at 60 h): 140 nM
IC50 ([1]; 3D7, read-out: Early trophozoites Mean IC50 (IC50^8h), 8-h exposure 16–24 hr, 3D7-A10, survival at 60 h): 68.9 nM
IC50 ([1]; 3D7, read-out: Late rings Mean IC50 (IC50^8h), 8-h exposure 8–16 hr, 3D7-A10, survival at 60 h): 97.7 nM
IC50 ([1]; 3D7, read-out: Late trophozoites Mean IC50 (IC50^8h), 8-h exposure 24–32 hr, 3D7-A10, survival at 60 h): 122 nM
IC50 ([1]; 3D7, read-out: Schizonts Mean IC50 (IC50^8h), 8-h exposure 32–40 hr, 3D7-A10, survival at 60 h): 382 nM
Stage of peak activity (Figure 6) ([1]; period when the parasite was most susceptible (lowest IC50^8h)): rings and trophozoites
changes within the set of metabolites detected (low fold change group) ([3]; 10 × IC50^72h, 2.5 hr, trophozoites): did not induce major changes
Log2(fold changes) 3-phosphoglycerate ([3]; metabolite 3-phosphoglycerate, log2 fold change): 0.1799
Log2(fold changes) 4-Pyridoxic acid ([3]; metabolite 4-Pyridoxic acid, log2 fold change): 0.0000
Log2(fold changes) 4-aminobutyrate ([3]; metabolite 4-aminobutyrate, log2 fold change): 0.0013
Log2(fold changes) 4-phosphopantetheine ([3]; metabolite 4-phosphopantetheine, log2 fold change): 0.0000
Log2(fold changes) 4-phosphopantothenate ([3]; metabolite 4-phosphopantothenate, log2 fold change): 0.0507
Log2(fold changes) 5-aminopentanoic acid ([3]; metabolite 5-aminopentanoic acid, log2 fold change): 0.0000
Log2(fold changes) 5-methyl-THF ([3]; metabolite 5-methyl-THF, log2 fold change): 0.0000
Log2(fold changes) 5-phosphoribosyl-1-pyrophosphate ([3]; metabolite 5-phosphoribosyl-1-pyrophosphate, log2 fold change): -0.0449
Log2(fold changes) 6-phospho-D-gluconate ([3]; metabolite 6-phospho-D-gluconate, log2 fold change): 0.0744
Log2(fold change) HVDD ([3]; metabolite HVDD): 0.6397
Log2(fold change) Hydroxyisocaproic acid ([3]; metabolite Hydroxyisocaproic acid): 0.0000
Log2(fold change) IDP ([3]; metabolite IDP): 0.0000
Log2(fold change) IMP ([3]; metabolite IMP): 0.0136
Log2(fold change) Inositol ([3]; metabolite Inositol): 0.0000
Log2(fold change) Isopentyl-PP ([3]; metabolite Isopentyl-PP): 0.0000
Log2(fold change) L-arginino-succinate ([3]; metabolite L-arginino-succinate): 0.0000
Log2(fold change) LD ([3]; metabolite LD): 0.0000
Log2(fold change) Myristoyl/tetradecanoyl-CoA ([3]; metabolite Myristoyl/tetradecanoyl-CoA): 0.0000
Log2(fold change) N-Acetyl-L-alanine ([3]; metabolite N-Acetyl-L-alanine): 0.2894
Log2(fold change) N-acetyl-L-ornithine ([3]; metabolite N-acetyl-L-ornithine): 0.9240
Log2(fold change) N-acetyl-glucosamine-1/6-phosphate ([3]; metabolite N-acetyl-glucosamine-1/6-phosphate): -0.0813
Log2(fold change) N-acetyl-glutamate ([3]; metabolite N-acetyl-glutamate): 0.1520
Log2(fold change) N-acetyl-glutamine ([3]; metabolite N-acetyl-glutamine): 0.0000
Log2(fold change) N-carbamoyl-L-aspartate ([3]; metabolite N-carbamoyl-L-aspartate): 0.0640
Log2(fold change) NAD+ ([3]; metabolite NAD+): 0.0000
Log2(fold change) NADH ([3]; metabolite NADH): 0.1408
Log2(fold change) NADP+ ([3]; metabolite NADP+): -0.0507
Log2(fold change) NADPH ([3]; metabolite NADPH): 0.0063
Log2(fold change) O-acetyl-L-serine ([3]; metabolite O-acetyl-L-serine): 0.0000
Log2(fold change) Octoluse 8/1P ([3]; metabolite Octoluse 8/1P): 0.0000
Log2(fold change) Octoluse Bisphosphate ([3]; metabolite Octoluse Bisphosphate): -0.0578
Log2(fold change) PD ([3]; metabolite PD): -0.3993
Log2(fold change) PE ([3]; metabolite PE): 0.0346
Log2(fold change) PEE ([3]; metabolite PEE): 0.4823
Log2(fold change) PEEK ([3]; metabolite PEEK): 0.0000
Log2(fold change) PVNF ([3]; metabolite PVNF): 0.0144
Log2(fold change) Pyroglutamic acid ([3]; metabolite Pyroglutamic acid): 0.0000
Log2(fold change) Pyrophosphate ([3]; metabolite Pyrophosphate): 0.0000
Log2(fold change) Ribose-5-phosphate ([3]; metabolite Ribose-5-phosphate): -0.1895
Log2(fold change) S-adenosyl-L-homocysteine ([3]; metabolite S-adenosyl-L-homocysteine): -0.2447
Log2(fold change) S-adenosyl-L-methioninamine ([3]; metabolite S-adenosyl-L-methioninamine): 0.0000
Log2(fold change) S-adenosyl-L-methionine ([3]; metabolite S-adenosyl-L-methionine): 0.0000
Log2(fold change) S-methyl-5'-thioadenosine ([3]; metabolite S-methyl-5'-thioadenosine): 0.0000
Log2(fold change) SD ([3]; metabolite SD): 0.2373
Log2(fold change) SDL ([3]; metabolite SDL): 0.0000
Log2(fold change) SID ([3]; metabolite SID): 0.1033
Log2(fold change) Sedoheptulose bisphosphate ([3]; metabolite Sedoheptulose bisphosphate): 0.1946
Log2(fold change) Thiamine pyrophosphate ([3]; metabolite Thiamine pyrophosphate): 0.0000
Log2(fold changes) UDP-D-glucose ([3]; metabolite UDP-D-glucose, log2 fold change): 0.0458
Log2(fold changes) UDP-D-glucuronate ([3]; metabolite UDP-D-glucuronate, log2 fold change): -0.0320
Log2(fold changes) UDP-N-acetyl-glucosamine ([3]; metabolite UDP-N-acetyl-glucosamine, log2 fold change): -0.0391
Log2(fold changes) UDP ([3]; metabolite UDP, log2 fold change): -0.7320
Log2(fold changes) UMP ([3]; metabolite UMP, log2 fold change): -0.3054
Log2(fold changes) UTP ([3]; metabolite UTP, log2 fold change): 0.0564
Log2(fold change) hydroxyphenylpyruvate ([3]; metabolite hydroxyphenylpyruvate): 0.0000
Log2(fold change) hydroxyproline/Aminolevulinate ([3]; metabolite hydroxyproline/Aminolevulinate): 0.0878
Log2(fold change) hypoxanthine ([3]; metabolite hypoxanthine): 0.2077
Log2(fold change) indole ([3]; metabolite indole): 0.0000
Log2(fold change) inosine ([3]; metabolite inosine): 0.0666
Log2(fold change) isoleucine ([3]; metabolite isoleucine): 0.1965
Log2(fold change) lactate ([3]; metabolite lactate): 0.0645
Log2(fold change) leucine ([3]; metabolite leucine): 0.2550
Log2(fold change) lysine ([3]; metabolite lysine): 0.0000
Log2(fold change) malate ([3]; metabolite malate): 0.0044
Log2(fold change) maleic acid ([3]; metabolite maleic acid): -0.0062
Log2(fold change) methionine ([3]; metabolite methionine): 0.4374
Log2(fold change) myo-inositol ([3]; metabolite myo-inositol): 0.0000
Log2(fold change) nicotinamide mononucleotide ([3]; metabolite nicotinamide mononucleotide): 0.0000
Log2(fold change) nicotinate ([3]; metabolite nicotinate): 0.1094
Log2(fold change) ornithine ([3]; metabolite ornithine): 0.0000
Log2(fold change) orotate ([3]; metabolite orotate): -0.2365
Log2(fold change) orotidine-5'-phosphate ([3]; metabolite orotidine-5'-phosphate): -0.1452
Log2(fold change) oxaloacetate ([3]; metabolite oxaloacetate): 0.0000
Log2(fold change) p-aminobenzoate ([3]; metabolite p-aminobenzoate): 0.0000
Log2(fold change) p-hydroxybenzoate ([3]; metabolite p-hydroxybenzoate): 0.0000
Log2(fold change) pantothenate ([3]; metabolite pantothenate): -0.0310
Log2(fold change) phenylalanine ([3]; metabolite phenylalanine): 0.2649
Log2(fold change) phenylpyruvate ([3]; metabolite phenylpyruvate): 0.0000
Log2(fold change) phosphoenolpyruvate ([3]; metabolite phosphoenolpyruvate): 0.2026
Log2(fold change) prephenate ([3]; metabolite prephenate): 0.0000
Log2(fold change) proline ([3]; metabolite proline): 0.1500
Log2(fold change) pyridoxine ([3]; metabolite pyridoxine): 0.2387
Log2(fold change) pyruvate ([3]; metabolite pyruvate): 0.0542
Log2(fold change) riboflavin ([3]; metabolite riboflavin): 0.0000
Log2(fold change) ribose ([3]; metabolite ribose): 0.4509
Log2(fold change) ribose-phosphate ([3]; metabolite ribose-phosphate): -0.2314
Log2(fold change) ribulose-5-phosphate ([3]; metabolite ribulose-5-phosphate): -0.1585
Log2(fold change) serine ([3]; metabolite serine): 0.1402
Log2(fold change) sn-glycerol-3-phosphate ([3]; metabolite sn-glycerol-3-phosphate): 0.1282
Log2(fold change) succinate/Methylmalonic acid ([3]; metabolite succinate/Methylmalonic acid): 0.1707
Log2(fold change) succinyl-CoA/methylmalonyl-CoA ([3]; metabolite succinyl-CoA/methylmalonyl-CoA): 0.2947
Log2(fold change) taurine ([3]; metabolite taurine): 0.0000
Log2(fold change) thiamine ([3]; metabolite thiamine): 0.0000
Log2(fold change) threonine/homoserine ([3]; metabolite threonine/homoserine): 0.3600
Log2(fold change) thymidine ([3]; metabolite thymidine): 0.0000
Log2(fold changes) thymine ([3]; metabolite thymine, log2 fold change): 0.0000
Log2(fold changes) trehalose-6-Phosphate ([3]; metabolite trehalose-6-Phosphate, log2 fold change): 0.0000
Log2(fold changes) tryptophan ([3]; metabolite tryptophan, log2 fold change): 0.2172
Log2(fold changes) tyrosine ([3]; metabolite tyrosine, log2 fold change): 0.2350
Log2(fold changes) uridine ([3]; metabolite uridine, log2 fold change): 0.0000
